{"source": "patent US20210137117A1", "about": "“HERBICIDAL MIXTURES” (Bayer Aktiengesellschaft, priority 2017, published 2021)", "assay_in_all_cases": "Pre-emergence action against weeds (greenhouse)", "format_in_all_cases": "in vivo", "key": {"[1]": {"system": "SORHA (Sorghum halepense)", "conditions": "for Herbicidal action SORHA: pre-emergence", "excerpt": "(§1) Depending on the trial conditions, the soil of the standard field soil is sterile or not sterile.\n(§2) The amount of water used for spray application was 300l/ha.\nSORHA (Sorghum halepense)—Johnsongrass\n(§3) Insofar as herbicidal effects of the compositions according to the invention compared to mixtures of the prior art or compared to components applied individually against economically important mono- and dicotyledonous harmful plants were the centre of attention, the synergistic herbicidal activities were calculated using Colby's formula (cf. S. R. Colby; Weeds 15 (1967), 20-22): […]"}, "[2]": {"system": "VERHE (Veronica hederaefolia)", "conditions": "for Herbicidal action VERHE: pre-emergence", "excerpt": "as §1, §2\nVERHE (Veronica hederaefolia)—Speedwell, iveleaf\nas §3"}, "[3]": {"system": "RAPRA (Raphanus raphanistrum)", "conditions": "for Herbicidal action RAPRA: pre-emergence", "excerpt": "as §1, §2\nRAPRA (Raphanus raphanistrum)—Charlock, jointed\nas §3"}, "[4]": {"system": "LOLRI—sensitive (Lolium rigidum)", "conditions": "for Herbicidal action LOLRI sensitive: pre-emergence", "excerpt": "as §1, §2\nLOLRI—sensitive (Lolium rigidum) sensitive to customary herbicidally active compounds.\nas §3"}, "[5]": {"system": "LOLRI—resistant (Lolium rigidum)", "conditions": "for Herbicidal action LOLRI resistant: pre-emergence", "excerpt": "as §1, §2\nLOLRI—resistant (Lolium rigidum) resistant to herbicidally active compounds of the HRAC groups A and B; population mixture of field origin having increased metabolic resistance (IMR) and some target site resistance (TSR).\nas §3"}, "[6]": {"system": "TRZAS (Triticum aestivum)", "conditions": "for Herbicidal action (crop damage) TRZAS: pre-emergence", "excerpt": "as §1, §2\nTRZAS (Triticum aestivum)—Wheat, spring\nas §3"}, "HORVS (Hordeum vulgare)": {"system": "HORVS (Hordeum vulgare)", "conditions": "for Herbicidal action (crop damage) HORVS: pre-emergence", "excerpt": "as §1, §2\nHORVS (Hordeum vulgare)—Barley, spring\nas §3"}, "EMEAU (Emex australis)": {"system": "EMEAU (Emex australis)", "conditions": "for Herbicidal action EMEAU: pre-emergence", "excerpt": "as §1, §2\nEMEAU (Emex australis)—Cathead\nas §3"}, "BRSNW (Brassica napus)": {"system": "BRSNW (Brassica napus)", "conditions": "for Herbicidal action BRSNW: pre-emergence", "excerpt": "as §1, §2\nBRSNW (Brassica napus)—Rape, winter\nas §3"}, "[7]": {"system": "ALOMY—sensitive (Alopecurus myosuroides)", "conditions": "for Herbicidal action ALOMY sensitive: pre-emergence", "excerpt": "as §1, §2\nALOMY—sensitive (Alopecurus myosuroides) sensitive to customary herbicidally active compounds.\nas §3"}, "AVEFA (Avenafatua)": {"system": "AVEFA (Avenafatua)", "conditions": "for Herbicidal action AVEFA: pre-emergence", "excerpt": "as §1, §2\nAVEFA (Avenafatua)—Wild oat\nas §3"}, "[8]": {"system": "ALOMY—resistant (Alopecurus myosuroides)", "conditions": "for Herbicidal action ALOMY resistant: pre-emergence", "excerpt": "as §1, §2\nALOMY—resistant (Alopecurus myosuroides) resistant to herbicidally active compounds of the HRAC groups A and B; population mixture of field origin having increased metabolic resistance (IMR) and some target site resistance (TSR).\nas §3"}, "CENCY (Centaurea cyanus)": {"system": "CENCY (Centaurea cyanus)", "conditions": "for Herbicidal action CENCY: pre-emergence", "excerpt": "as §1, §2\nCENCY (Centaurea cyanus)—Cornflower\nas §3"}, "BROST (Bromus sterilis)": {"system": "BROST (Bromus sterilis)", "conditions": "for Herbicidal action BROST: pre-emergence", "excerpt": "as §1, §2\nBROST (Bromus sterilis)—Bromegrass, barren\nas §3"}}}
{"molecule": "CCOC(=O)C1=NN(c2ccc(Cl)cc2Cl)C(C)(C(=O)OCC)C1", "note": "(stereo not drawn) [Mefenpyr, ethyl 1-(2,4-dichlorophenyl)-5-(ethoxycarbonyl)-5-methyl-2-pyrazoline-3-carboxylate]", "values": [{"measurement": "herbicidal action", "setting": "[1]; 300 g AS/ha", "result": 0, "unit": "%"}, {"measurement": "Herbicidal action SORHA", "setting": "[1]; dose 10 g AS/ha", "result": 0}, {"measurement": "Herbicidal action SORHA", "setting": "[1]; dose 100 g AS/ha", "result": 0}, {"measurement": "herbicidal action", "setting": "[2]; 300 g AS/ha", "result": 0, "unit": "%"}, {"measurement": "Herbicidal action VERHE", "setting": "[2]; dose 10 g AS/ha", "result": 0}, {"measurement": "Herbicidal action VERHE", "setting": "[2]; dose 100 g AS/ha", "result": 0}, {"measurement": "herbicidal action", "setting": "[3]; 300 g AS/ha", "result": 0, "unit": "%"}, {"measurement": "Herbicidal action RAPRA", "setting": "[3]; dose 10 g AS/ha", "result": 0}, {"measurement": "Herbicidal action RAPRA", "setting": "[3]; dose 100 g AS/ha", "result": 0}, {"measurement": "herbicidal action", "setting": "[4]; 300 g AS/ha", "result": 0, "unit": "%"}, {"measurement": "Herbicidal action LOLRI sensitive", "setting": "[4]; dose 10 g AS/ha", "result": 0}, {"measurement": "Herbicidal action LOLRI sensitive", "setting": "[4]; dose 100 g AS/ha", "result": 0}, {"measurement": "herbicidal action", "setting": "[5]; 300 g AS/ha", "result": 0, "unit": "%"}, {"measurement": "Herbicidal action LOLRI resistant", "setting": "[5]; dose 10 g AS/ha", "result": 0}, {"measurement": "Herbicidal action LOLRI resistant", "setting": "[5]; dose 100 g AS/ha", "result": 0}, {"measurement": "herbicidal action", "setting": "[6]; 300 g AS/ha", "result": 0, "unit": "%"}, {"measurement": "Herbicidal action (crop damage) TRZAS", "setting": "[6]; dose 10 g AS/ha", "result": 0}, {"measurement": "Herbicidal action (crop damage) TRZAS", "setting": "[6]; dose 100 g AS/ha", "result": 0}, {"measurement": "herbicidal action", "setting": "HORVS (Hordeum vulgare); 300 g AS/ha", "result": 0, "unit": "%"}, {"measurement": "Herbicidal action (crop damage) HORVS", "setting": "HORVS (Hordeum vulgare); dose 10 g AS/ha", "result": 0}, {"measurement": "Herbicidal action (crop damage) HORVS", "setting": "HORVS (Hordeum vulgare); dose 100 g AS/ha", "result": 0}, {"measurement": "herbicidal action", "setting": "EMEAU (Emex australis); 300 g AS/ha", "result": 0, "unit": "%"}, {"measurement": "Herbicidal action EMEAU", "setting": "EMEAU (Emex australis); dose 10 g AS/ha", "result": 0}, {"measurement": "Herbicidal action EMEAU", "setting": "EMEAU (Emex australis); dose 100 g AS/ha", "result": 0}, {"measurement": "herbicidal action", "setting": "BRSNW (Brassica napus); 300 g AS/ha", "result": 0, "unit": "%"}, {"measurement": "Herbicidal action BRSNW", "setting": "BRSNW (Brassica napus); dose 10 g AS/ha", "result": 0}, {"measurement": "Herbicidal action BRSNW", "setting": "BRSNW (Brassica napus); dose 100 g AS/ha", "result": 0}, {"measurement": "herbicidal action", "setting": "[7]; 300 g AS/ha", "result": 0, "unit": "%"}, {"measurement": "Herbicidal action ALOMY sensitive", "setting": "[7]; dose 10 g AS/ha", "result": 0}, {"measurement": "Herbicidal action ALOMY sensitive", "setting": "[7]; dose 100 g AS/ha", "result": 0}, {"measurement": "herbicidal action", "setting": "AVEFA (Avenafatua); 300 g AS/ha", "result": 0, "unit": "%"}, {"measurement": "Herbicidal action AVEFA", "setting": "AVEFA (Avenafatua); dose 10 g AS/ha", "result": 0}, {"measurement": "Herbicidal action AVEFA", "setting": "AVEFA (Avenafatua); dose 100 g AS/ha", "result": 0}, {"measurement": "herbicidal action", "setting": "[8]; 300 g AS/ha", "result": 0, "unit": "%"}, {"measurement": "Herbicidal action ALOMY resistant", "setting": "[8]; dose 10 g AS/ha", "result": 0}, {"measurement": "Herbicidal action ALOMY resistant", "setting": "[8]; dose 100 g AS/ha", "result": 0}, {"measurement": "herbicidal action", "setting": "CENCY (Centaurea cyanus); 300 g AS/ha", "result": 0, "unit": "%"}, {"measurement": "Herbicidal action CENCY", "setting": "CENCY (Centaurea cyanus); dose 10 g AS/ha", "result": 0}, {"measurement": "Herbicidal action CENCY", "setting": "CENCY (Centaurea cyanus); dose 100 g AS/ha", "result": 0}, {"measurement": "herbicidal action", "setting": "BROST (Bromus sterilis); 300 g AS/ha", "result": 0, "unit": "%"}, {"measurement": "Herbicidal action BROST", "setting": "BROST (Bromus sterilis); dose 10 g AS/ha", "result": 0}, {"measurement": "Herbicidal action BROST", "setting": "BROST (Bromus sterilis); dose 100 g AS/ha", "result": 0}]}
